Experimental data reported in PubChem BioAssay AID330 (DTP/NCI, 2004).
“And” between values parts separate entries of the source, which are not always exact repeats. Equal values may be shown once. Toxic doses and inconclusive results are not listed. How the source made its calls: active means survival T/C of 150% or more; inactive means T/C below 125% in these data.

Test system: P388 leukemia ip, CD2F1 mice, survival T/C
Experiment: NCI In Vivo Anticancer Drug Screen. Data for tumor model P388 Leukemia (intraperitoneal) in CD2F1 (CDF1) mice
Settings: endpoint: median survival time, higher = longer survival
Method in brief: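 Mice carrying the transplanted tumor received test compound or vehicle. Survival was recorded in each group, and the value is the treated-group measurement divided by that of the vehicle-treated control group.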

[1] = dose: 60.0 mg/kg/injection, schedule: Q01DX005 (ip), vehicle: saline with Tween-80
[2] = dose: 100.0 mg/kg/injection, schedule: Q01DX009 (ip), vehicle: saline
[3] = dose: 200.0 mg/kg/injection, schedule: Q01DX009 (ip), vehicle: saline
[4] = dose: 400.0 mg/kg/injection, schedule: Q01DX009 (ip), vehicle: saline
[5] = dose: 50.0 mg/kg/injection, schedule: Q01DX005 (ip), vehicle: saline with Tween-80
[6] = dose: 100.0 mg/kg/injection, schedule: Q01DX005 (ip), vehicle: saline with Tween-80
[7] = dose: 200.0 mg/kg/injection, schedule: Q01DX005 (ip), vehicle: saline with Tween-80
[8] = dose: 50.0 mg/kg/injection, schedule: Q01DX009 (ip), vehicle: Klucel (hydroxypropylcellulose) (HPC)
[9] = dose: 100.0 mg/kg/injection, schedule: Q01DX009 (ip), vehicle: Klucel (hydroxypropylcellulose) (HPC)
[10] = dose: 50.0 mg/kg/injection, schedule: Q01DX009 (ip), vehicle: saline with Tween-80
[11] = dose: 100.0 mg/kg/injection, schedule: Q01DX009 (ip), vehicle: saline with Tween-80
[12] = dose: 200.0 mg/kg/injection, schedule: Q01DX009 (ip), vehicle: saline with Tween-80
[13] = dose: 120.0 mg/kg/injection, schedule: Q01DX005 (ip), vehicle: saline with Tween-80
[14] = dose: 240.0 mg/kg/injection, schedule: Q01DX005 (ip), vehicle: saline with Tween-80
[15] = dose: 50.0 mg/kg/injection, schedule: Q01DX005 (ip), vehicle: saline
[16] = dose: 100.0 mg/kg/injection, schedule: Q01DX005 (ip), vehicle: saline
[17] = dose: 200.0 mg/kg/injection, schedule: Q01DX005 (ip), vehicle: saline
[18] = dose: 400.0 mg/kg/injection, schedule: Q01DX009 (ip), vehicle: saline with Tween-80

Measured: T/C

CN1C(=O)N(C)C2=NC(=O)N(C)C2(C(Cl)(Cl)Cl)C1=O (stereo not drawn)
inactive: dose: 7.5 mg/kg/injection, schedule: Q01DX005 (ip), vehicle: saline with Tween-80 103 % of control | dose: 15.0 mg/kg/injection, schedule: Q01DX005 (ip), vehicle: saline with Tween-80 102 % of control | dose: 30.0 mg/kg/injection, schedule: Q01DX005 (ip), vehicle: saline with Tween-80 112 % of control | [1] 112 % of control

CC1CC(=O)OC2CC(C)(C)CC(=O)C12 (stereo not drawn)
inactive: [2] 100 % of control | [3] 100 % of control | [4] 109 % of control

Cc1ccc2c(c1)C1(SCCC(=O)N1c1ccc(Cl)cc1)C(=O)N2 (stereo not drawn)
inactive: [5] 103 % of control | [6] 95 % of control | [7] 100 % of control

C=CCCCC/C=C/C=C/C#CC#C/C=C/COC(C)=O
inactive: dose: 12.5 mg/kg/injection, schedule: Q01DX009 (ip), vehicle: Klucel (hydroxypropylcellulose) (HPC) 100 % of control | dose: 25.0 mg/kg/injection, schedule: Q01DX009 (ip), vehicle: Klucel (hydroxypropylcellulose) (HPC) 106 % of control | [8] 106 % of control | [9] 106 % of control

NOCc1ccccc1CON
inactive: dose: 37.5 mg/kg/injection, schedule: Q01DX009 (ip), vehicle: saline with Tween-80 86 % of control | dose: 75.0 mg/kg/injection, schedule: Q01DX009 (ip), vehicle: saline with Tween-80 91 % of control | dose: 150.0 mg/kg/injection, schedule: Q01DX009 (ip), vehicle: saline with Tween-80 104 % of control

CCOC(=O)CC(SP(=S)(OC)OC)C(=O)OCC (stereo not drawn)
inactive: [10] 103 % of control | [11] 112 % of control | [12] 107 % of control

O=C1C(C2CCCCC2)=C2OCC3COC2(O3)c2ccccc21 (stereo not drawn)
inactive: [1] 102 % of control | [13] 105 % of control | [14] 102 % of control

Cc1cc(C)c(N(CCO)CCO)cc1C
inactive: [10] 99 % of control | [11] 108 % of control | [12] 97 % of control

O=C1C=C(N2C3C4CCC(C4)C32)C(=O)C=C1c1ccccc1 (stereo not drawn)
inactive: dose: 100.0 mg/kg/injection, schedule: Q01DX001 (ip), vehicle: other 102 % of control | dose: 200.0 mg/kg/injection, schedule: Q01DX001 (ip), vehicle: other 109 % of control | dose: 400.0 mg/kg/injection, schedule: Q01DX001 (ip), vehicle: other 111 % of control

Nc1ccccc1SC(C[N+](=O)[O-])c1ccc2c(c1)OCO2 (stereo not drawn)
inactive: [1] 115 % of control | [13] 114 % of control

CC1=C(C(=O)Nc2ccccc2)C(c2ccccc2F)C(C(=O)Nc2ccccc2)=C(C)N1
inactive: dose: 100.0 mg/kg/injection, schedule: Q04DX002 (ip), vehicle: saline with Tween-80 100 % of control | dose: 200.0 mg/kg/injection, schedule: Q04DX002 (ip), vehicle: saline with Tween-80 100 % of control | dose: 400.0 mg/kg/injection, schedule: Q04DX002 (ip), vehicle: saline with Tween-80 91 % of control

N#CC1C(=O)NC(=O)C(C#N)C1c1ccccc1 (stereo not drawn)
inactive: [8] 102 % of control | [9] 101 % of control | dose: 200.0 mg/kg/injection, schedule: Q01DX009 (ip), vehicle: Klucel (hydroxypropylcellulose) (HPC) 100 % of control

ClSC(c1ccccc1)(c1ccccc1)c1ccccc1
inactive: [5] 103 % of control | [6] 118 % of control | [7] 94 % of control

CCOP(=O)(CS(=O)CCC1(C)NC(=O)NC1=O)OCC (stereo not drawn)
inactive: [15] 100 % of control | [16] 101 % of control | [17] 103 % of control

CC(=O)N1NC(=O)c2c([nH]c3ccccc23)C1c1ccccc1 (stereo not drawn)
inactive: dose: 100.0 mg/kg/injection, schedule: Q04DX002 (ip), vehicle: Klucel (hydroxypropylcellulose) (HPC) 101 % of control | dose: 200.0 mg/kg/injection, schedule: Q04DX002 (ip), vehicle: Klucel (hydroxypropylcellulose) (HPC) 106 % of control | dose: 400.0 mg/kg/injection, schedule: Q04DX002 (ip), vehicle: Klucel (hydroxypropylcellulose) (HPC) 101 % of control

Nc1ccncc1C(=O)O
inactive: [10] 99 % of control | [11] 99 % of control | [12] 96 % of control

O=S(=O)(F)c1ccc(O)cc1
inactive: dose: 15.0 mg/kg/injection, schedule: Q01DX005 (ip), vehicle: saline 96 % of control | dose: 30.0 mg/kg/injection, schedule: Q01DX005 (ip), vehicle: saline 99 % of control | dose: 60.0 mg/kg/injection, schedule: Q01DX005 (ip), vehicle: saline 99 % of control and 97 % of control

NNC(=O)c1c(O)ccc2ccccc12
inactive: [5] 95 % of control | [6] 93 % of control | [7] 100 % of control

O=C1C=C(SCCCC(=O)N2CCOCC2)C(=O)c2ccccc21
inactive: dose: 6.25 mg/kg/injection, schedule: Q04DX003 (ip), vehicle: Klucel (hydroxypropylcellulose) (HPC) 107 % of control | dose: 12.5 mg/kg/injection, schedule: Q04DX003 (ip), vehicle: Klucel (hydroxypropylcellulose) (HPC) 104 % of control

OC1CC2CCCCC2CC1(O)c1ccc(OCc2ccccc2)c(OCc2ccccc2)c1 (stereo not drawn)
inactive: dose: 25.0 mg/kg/injection, schedule: Q01DX001 (ip), vehicle: saline with Tween-80 92 % of control | dose: 50.0 mg/kg/injection, schedule: Q01DX001 (ip), vehicle: saline with Tween-80 88 % of control | dose: 100.0 mg/kg/injection, schedule: Q01DX001 (ip), vehicle: saline with Tween-80 86 % of control

CC(C(C(=O)N1CCCCC1)N1CCCCC1)N1CCCCC1 (stereo not drawn)
inactive: [2] 99 % of control | [3] 87 % of control | [4] 97 % of control

O=S(=O)(O)C(Nc1ccccc1)c1ccccc1 (stereo not drawn)
inactive: [11] 100 % of control | dose: 100.0 mg/kg/injection, schedule: Q04DX003 (ip), vehicle: saline sonified 100 % of control | [12] 109 % of control | dose: 200.0 mg/kg/injection, schedule: Q04DX003 (ip), vehicle: saline sonified 100 % of control | [18] 104 % of control | dose: 400.0 mg/kg/injection, schedule: Q04DX003 (ip), vehicle: saline sonified 100 % of control

CC1(C)OC(=O)C(CCc2ccccn2)(CCc2ccccn2)C(=O)O1
inactive: dose: 12.5 mg/kg/injection, schedule: Q01DX009 (ip), vehicle: saline with Tween-80 113 % of control | dose: 25.0 mg/kg/injection, schedule: Q01DX009 (ip), vehicle: saline with Tween-80 103 % of control | [10] 110 % of control | [11] 114 % of control | [12] 104 % of control

Oc1ccccc1C=NCCN=Cc1ccccc1O
inactive: [10] 99 % of control | [11] 99 % of control | [12] 101 % of control | [18] 105 % of control

O=C(Nn1nnnc1-c1ccccc1)c1ccccc1
inactive: dose: 25.0 mg/kg/injection, schedule: Q01DX005 (ip), vehicle: Klucel (hydroxypropylcellulose) (HPC) 97 % of control | dose: 50.0 mg/kg/injection, schedule: Q01DX005 (ip), vehicle: Klucel (hydroxypropylcellulose) (HPC) 92 % of control | dose: 100.0 mg/kg/injection, schedule: Q01DX005 (ip), vehicle: Klucel (hydroxypropylcellulose) (HPC) 101 % of control

CC1OC(OC2C(Oc3cc(O)c4c(c3)OC(c3ccc(O)cc3)CC4=O)OC(CO)C(O)C2O)C(O)C(O)C1O (stereo not drawn)
inactive: [15] 98 % of control | [16] 97 % of control | [17] 98 % of control

CC(C)COC(=O)N(CCCl)N=O
inactive: dose: 0.62 mg/kg/injection, schedule: Q01DX009 (ip), vehicle: saline with Tween-80 100 % of control and 111 % of control | dose: 1.25 mg/kg/injection, schedule: Q01DX001 (ip), vehicle: saline with Tween-80 103 % of control | dose: 1.25 mg/kg/injection, schedule: Q01DX009 (ip), vehicle: saline with Tween-80 108 % of control and 116 % of control | dose: 2.5 mg/kg/injection, schedule: Q01DX001 (ip), vehicle: saline with Tween-80 100 % of control | dose: 2.5 mg/kg/injection, schedule: Q01DX009 (ip), vehicle: saline with Tween-80 112 % of control and 115 % of control and 120 % of control | dose: 5.0 mg/kg/injection, schedule: Q01DX001 (ip), vehicle: saline with Tween-80 100 % of control and 112 % of control | dose: 5.0 mg/kg/injection, schedule: Q01DX009 (ip), vehicle: saline with Tween-80 100 % of control and 97 % of control | dose: 10.0 mg/kg/injection, schedule: Q01DX001 (ip), vehicle: saline with Tween-80 90 % of control

CN(C)C12CCC(c3ccccc31)c1ccccc12
inactive: [1] 105 % of control | [13] 97 % of control | [14] 104 % of control

Cn1c2ccccc2c(=S)c2cc(NC(=O)CCCCC(=O)Nc3ccc4c(c3)c(=S)c3ccccc3n4C)ccc21
inactive: [5] 110 % of control | [6] 98 % of control | [7] 104 % of control
